The values below come from US20180147196A1, “PYRIDIN-3-YL ACETIC ACID DERIVATIVES AS INHIBITORS OF HUMAN IMMUNODEFICIENCY VIRUS REPLICATION” (priority 2015, published 2018).

The assay concerns NL-RLuc virus. As to the kind of experiment: Inhibition of HIV replication (NL-RLuc virus in MT-2 cells, luciferase readout). The settings on record: Human immunodeficiency virus 1, MT2, 120 h. The class given is cell-based. The source says:
Inhibition of HIV replication: A recombinant NL-RLuc proviral clone was constructed in which a section of the nef gene from NL4-3 was replaced with the Renilla Luciferase gene. This virus is fully infectious and can undergo multiple cycles of replication in cell culture. In addition, the luciferous reporter provides a simple and easy method for quantitating the extent of virus growth and consequently, the antiviral activity of test compounds. The plasmid pNLRLuc contains the proviral NL-Rluc DNA cloned into pUC18 at the Pvull site. The NL-RLuc virus was prepared by transfection of 293T cells with the plasmid pNLRLuc. Transfections were performed using the LipofectAMINE PLUS kit from Invitrogen (Carlsbad, Calif.) according to the manufacturer and the virus generated was titered in MT-2 cells. For susceptibility analyses, the titrated virus was used to infect MT-2 cells in the presence of compound, and after 5 days of incubation, cells were processed and quantitated for virus growth by the amount of expressed luciferase. Assay media was RPMI 1640 supplemented with 10% heat inactivated fetal bovine serum (FBS), 100 units/ml penicillin G/100 units/ml streptomycin, 10 mM HEPES buffer pH 7.55 and 2 mM L-glutamine. The results from at least 2 experiments were used to calculate the EC50 values. Luciferase was quantitated using the Dual Luciferase kit from Promega (Madison, Wis.). Susceptibility of viruses to compounds was determined by incubation in the presence of serial dilutions of the compound. The 50% effective concentration (EC50) was calculated by using the exponential form of the median effect equation where (Fa)=1/[1+(ED50/drug conc.)^m] (Johnson V A, Byington R T. Infectivity Assay. In Techniques in HIV Research. ed. Aldovini A, Walker BD. 71-76. New York: Stockton Press.1990). Activity equal to A refers to a compound having an EC50<100 nM, while B and C denote compounds having an EC50 between 100 nM and 1 uM (B) or >1 uM (C).

Each structure is given as a SMILES string. Read-outs that look alike come from different tables or passages of the source. Where only a bound is given, the exact number is not on record here.

Take `CCc1c(C)nc(C)c([C@H](OC(C)(C)C)C(=O)O)c1N1CCC(C)(C)CC1` [Example 29, (S)-2-(tert-Butoxy)-2-(4-(4,4-dimethylpiperidin-1-yl)-5-ethyl-2,6-dimethylpyridin-3-yl)acetic acid]: the EC50 is < 0.1 µM (read-out: Activity) and 0.068 µM (read-out: EC50 μM). In the case of `Cc1nc(C)c([C@H](OC(C)(C)C)C(=O)O)c(N2CCC(C)(C)CC2)c1C#N` [Example 24, (S)-2-(tert-Butoxy)-2-(5-cyano-4-(4,4-dimethylpiperidin-1-yl)-2,6-dimethylpyridin-3-yl)acetic acid], under “read-out: Activity”, the EC50 was in the range of 0.1 to 1 µM.

Consider `Cc1nc(C)c([C@H](OC(C)(C)C)C(=O)O)c(N2CCC(C)(C)CC2)c1CCc1ccc(-c2ccccc2)cc1` [Example 6, (S)-2-(5-(2-([1,1′-Biphenyl]-4-yl)ethyl)-4-(4,4-dimethylpiperidin-1-yl)-2,6-dimethylpyridin-3-yl)-2-(tert-butoxy)acetic acid], for which the EC50 (read-out: Activity) is < 0.1 µM. Take `Cc1nc(C)c([C@H](OC(C)(C)C)C(=O)O)c(N2CCC(C)(C)CC2)c1/C=C/c1ccc(C(F)(F)F)cc1` [Example 7, (S,E)-2-(tert-Butoxy)-2-(4-(4,4-dimethylpiperidin-1-yl)-2,6-dimethyl-5-(4-(trifluoromethyl)styryl)pyridin-3-yl)acetic acid]: the EC50 (read-out: Activity) was < 0.1 µM. For the molecule `Cc1nc(C)c([C@H](OC(C)(C)C)C(=O)O)c(N2CCC(C)(C)CC2)c1C` [Example 26, (S)-2-(tert-Butoxy)-2-(4-(4,4-dimethylpiperidin-1-yl)-2,5,6-trimethylpyridin-3-yl)acetic acid], the EC50 was < 0.1 µM (read-out: Activity) and 0.097 µM (read-out: EC50 μM). `Cc1nc(C)c([C@H](OC(C)(C)C)C(=O)O)c(N2CCC(C)(C)CC2)c1Br` [Example 13, (S)-2-(5-Bromo-4-(4,4-dimethylpiperidin-1-yl)-2,6-dimethylpyridin-3-yl)-2-(tert-butoxy)acetic acid]: the EC50 (read-out: Activity) was in the range of 0.1 to 1 µM. Same read-out and setting: as for `Cc1cc(N2CCC(C)(C)CC2)c([C@H](OC(C)(C)C)C(=O)O)c(C)n1` [Example 27, (S)-2-(tert-Butoxy)-2-(4-(4,4-dimethylpiperidin-1-yl)-2,6-dimethylpyridin-3-yl)acetic acid], the figure is > 1 µM; as for `C=Cc1c(C)nc(C)c([C@H](OC(C)(C)C)C(=O)O)c1N1CCC(C)(C)CC1` [Example 28, (S)-2-(tert-Butoxy)-2-(4-(4,4-dimethylpiperidin-1-yl)-2,6-dimethyl-5-vinylpyridin-3-yl)acetic acid], 0.1 to 1 µM.

In the case of `Cc1nc(C)c([C@H](OC(C)(C)C)C(=O)O)c(N2CCC(C)(C)CC2)c1C1=CCN(CCc2ccc(F)cc2)CC1` [Example 22, (S)-2-(tert-Butoxy)-2-(4-(4,4-dimethylpiperidin-1-yl)-1′-(4-fluorophenethyl)-2,6-dimethyl-1′,2′,3′,6′-tetrahydro-[3,4′-bipyridin]-5-yl)acetic acid], the EC50 (read-out: Activity) lay in the range of 0.1 to 1 µM. For the molecule `Cc1nc(C)c([C@H](OC(C)(C)C)C(=O)O)c(N2CCC(C)(C)CC2)c1C1=CC(CCOc2ccc(F)cc2)C1` (stereo partly drawn) [Example 25, (2S)-2-(tert-Butoxy)-2-(4-(4,4-dimethylpiperidin-1-yl)-5-(3-(2-(4-fluorophenoxy)ethyl)cyclobut-1-en-1-yl)-2,6-dimethylpyridin-3-yl)acetic acid], the EC50 (read-out: Activity) was < 0.1 µM. Take `Cc1nc(C)c([C@H](OC(C)(C)C)C(=O)O)c(N2CCC(C)(C)CC2)c1CCc1ccccc1` [Example 12, (S)-2-(tert-Butoxy)-2-(4-(4,4-dimethylpiperidin-1-yl)-2,6-dimethyl-5-phenethylpyridin-3-yl)acetic acid]: the EC50 (read-out: Activity) was 0.1 to 1 µM.

In the case of `Cc1nc(C)c([C@H](OC(C)(C)C)C(=O)O)c(N2CCC(C)(C)CC2)c1C#CC1(O)CCN(Cc2ccccc2)CC1` [Example 2, (S)-2-(5-((1-Benzyl-4-hydroxypiperidin-4-yl)ethynyl)-4-(4,4-dimethylpiperidin-1-yl)-2,6-dimethylpyridin-3-yl)-2-(tert-butoxy)acetic acid], the EC50 is, setting by setting: (read-out: Activity) < 0.1 µM; (read-out: EC50 μM) 0.064 µM. In the case of `Cc1nc(C)c([C@H](OC(C)(C)C)C(=O)O)c(N2CCC(C)(C)CC2)c1/C=C/Cc1ccccc1` [Example 9, (S,E)-2-(tert-Butoxy)-2-(4-(4,4-dimethylpiperidin-1-yl)-2,6-dimethyl-5-(3-phenylprop-1-en-1-yl)pyridin-3-yl)acetic acid], the EC50 by setting is: (read-out: Activity) 0.1 to 1 µM; (read-out: EC50 μM) 0.281 µM. As for `Cc1nc(C)c([C@H](OC(C)(C)C)C(=O)O)c(N2CCC(C)(C)CC2)c1C1=CCN(C(=O)OCc2ccccc2)CC1` [Example 19, (S)-2-(1′-((Benzyloxy)carbonyl)-4-(4,4-dimethylpiperidin-1-yl)-2,6-dimethyl-1′,2′,3′,6′-tetrahydro-[3,4′-bipyridin]-5-yl)-2-(tert-butoxy)acetic acid], the EC50 (read-out: Activity) was < 0.1 µM. Consider `Cc1nc(C)c([C@H](OC(C)(C)C)C(=O)O)c(N2CCC(C)(C)CC2)c1C1CC1` [Example 31, (S)-2-(tert-Butoxy)-2-(5-cyclopropyl-4-(4,4-dimethylpiperidin-1-yl)-2,6-dimethylpyridin-3-yl)acetic acid], for which the EC50 (read-out: Activity) is 0.1 to 1 µM and the EC50 (read-out: EC50 μM) stood at 0.118 µM. Regarding `Cc1nc(C)c([C@H](OC(C)(C)C)C(=O)O)c(N2CCC(C)(C)CC2)c1CCCc1ccccc1` [Example 10, (S)-2-(tert-Butoxy)-2-(4-(4,4-dimethylpiperidin-1-yl)-2,6-dimethyl-5-(3-phenylpropyl)pyridin-3-yl)acetic acid], the EC50 (read-out: Activity) fell in the range of 0.1 to 1 µM.

With `Cc1nc(C)c([C@H](OC(C)(C)C)C(=O)O)c(N2CCC(C)(C)CC2)c1C1=CCNCC1` [Example 21, (S)-2-(tert-Butoxy)-2-(4-(4,4-dimethylpiperidin-1-yl)-2,6-dimethyl-1′,2′,3′,6′-tetrahydro-[3,4′-bipyridin]-5-yl)acetic acid], the EC50 was > 1 µM (read-out: Activity) and 2.21 µM (read-out: EC50 μM).

Regarding `Cc1nc(C)c([C@H](OC(C)(C)C)C(=O)O)c(N2CCC(C)(C)CC2)c1C1=CCC(C(C)(C)C)CC1` (stereo partly drawn) [Example 15, (2S)-2-(tert-Butoxy)-2-(5-(4-(tert-butyl)cyclohex-1-en-1-yl)-4-(4,4-dimethylpiperidin-1-yl)-2,6-dimethylpyridin-3-yl)acetic acid], the EC50 (read-out: Activity) was 0.1 to 1 µM.

`Cc1nc(C)c([C@H](OC(C)(C)C)C(=O)O)c(N2CCC(C)(C)CC2)c1/C=C/c1ccc(F)cc1` [Example 3, (S,E)-2-(tert-Butoxy)-2-(4-(4,4-dimethylpiperidin-1-yl)-5-(4-fluorostyryl)-2,6-dimethylpyridin-3-yl)acetic acid]: under “read-out: Activity”, the EC50 is < 0.1 µM. Turning to `Cc1nc(C)c([C@H](OC(C)(C)C)C(=O)O)c(N2CCC(C)(C)CC2)c1CCc1ccc(C(F)(F)F)cc1` [Example 8, (S)-2-(tert-Butoxy)-2-(4-(4,4-dimethylpiperidin-1-yl)-2,6-dimethyl-5-(4-(trifluoromethyl)phenethyl)pyridin-3-yl)acetic acid], for the setting “read-out: Activity”, the EC50 was 0.1 to 1 µM. Turning to `Cc1nc(C)c([C@H](OC(C)(C)C)C(=O)O)c(N2CCC(C)(C)CC2)c1C#CCOCc1ccccc1` [Example 1, (S)-2-(5-(3-(Benzyloxy)prop-1-yn-1-yl)-4-(4,4-dimethylpiperidin-1-yl)-2,6-dimethylpyridin-3-yl)-2-(tert-butoxy)acetic acid], the EC50 is 0.1 to 1 µM (read-out: Activity) and 0.282 µM (read-out: EC50 μM).
